The conditions of series [1]: for solubility in 0.1% trifluoroacetic acid: pH 2.5; for solubility in the acetate buffer: pH 6.5.
Series [2] is described as follows: Solubility of (G)n-RGDF peptides in buffers.
Series [3] deals with platelets. As to the kind of experiment: Release of 14C-serotonin from platelets. It counts as cell-based. Particulars: acetylsalicylic acid 50 μM; PGE1 0.14 μM; 8 min. On the procedure: Citrated PRP (3×10^11 /l) was incubated with ^14 C-5-serotonin (10 μCi/ml stock solution, 20-25 nCi/ml final concentration, New England Nuclear, Boston, Mass.) for 30 min at 22° C. with gentle stirring (~100 rpm) using a teflon coated stir bar. In order to maintain the PRP pH constant at ~7.60, the PRP was overlayed with 5% CO2, 95% air just before the incubation began. Serotonin uptake was terminated by adding 5 μM imipramine (Sigma) and stirring was continued for another 5 min. Total uptake under these conditions was 70-80% of the added serotonin. The agglutination assay was performed in quadruplicate in the same way as described above except that after 8 min of shaking, 70 μl of cold 2% paraformaldehyde in PBS, pH 7.4 was added to the wells and the microtiter plate was centrifuged at 1000×g for 5 min at 22° C. The top 50 μl of the supernatant (total volume in each well was 145 μl) was added to scintillation fluid and counted in a scintillation spectrometer. In some experiments the PRP was preincubated with acetylsalicylic acid (50 μM) or PGE1 (0.14 μM) during the serotonin uptake.

Series [4] deals with platelets. Put plainly: Agglutination assay with peptide-coated beads. It counts as cell-based. On the procedure:
Biol. 109:863) was a gift of Dr. Kenneth Yamada, National Institutes of Health, Bethesda, Md. The platelets were incubated with the antibody concentrations indicated for 30-60 min before the addition of the beads. In the case of PAC-1, which binds only to activated platelets (Shattil et al. 1985, J. Biol. Chem. 260:1107), the platelets were activated with ADP (6.7 μM final concentration) without stirring for 5 min before adding the antibody.
To 70 μl of PRP or GFP at a count of 3×10^11 platelets/l in a 96 well round bottom polystyrene microtiter plate, 5 μl of a well mixed bead suspension (0.22 mg beads) was added and the plate was rotated at 260 rpm (Orbit shaker, Lab Line Instruments, Melrose Park, Ill.) for various times between 0 and 30 min (0.5, 1, 2, 4, 6, 8, 10, 12, 15, 20, 25, 30 min). […] Platelet counts in the supernatant plasma or buffer were measured by removing 5 μl from the supernatant after allowing the bead agglutinates to settle for 3 min. […] In some experiments, platelets were activated with 6.7 μM ADP 30 sec prior to the addition of the beads; in other experiments the platelets were preincubated with 0.14 μM PGE1 (Sigma, St. Louis) for 30 min.

Another series deals with activated platelets. Put plainly: Platelet-thrombo-erythrocyte co-aggregation assay (microtiter). Particulars: ADP-activated PRP preincubated with 10 mM EDTA, 300 μg/ml RGDF or antibody 7E3. It counts as cell-based. On the procedure: To assess the ability of thrombo-erythrocytes to enter into developing platelet aggregates, a microtiter assay was developed. Platelet-rich plasma (PRP) was prepared from blood anticoagulated with 0.01 volume 40% sodium citrate and adjusted to a platelet count of 3.5×10^8 /ml with platelet-poor plasma. Aliquots (50 or 100 μl) of the PRP were added to microtiter wells and then 5 or 10 μl of ADP (100 μM stock solution) was added to selected wells, followed by the addition of 5 or 10 μl of thrombo-erythrocytes (10% hematocrit in buffer A). The microtiter plate was then rotated at 270 rpm at 22° C. for variable periods of time between 0.5 and 20 min and the extent of platelet-thrombo-erythrocytecoaggregation was assessed visually on a scale from 0-4+ with the aid of a magnifying mirror. To assess the specificity of the reaction, in some experiments the PRP was preincubated with 10 mM EDTA, 300 μg/ml of the peptide RGDF, or 20 μg/ml of an antibody directed against both the GPIIb/IIIa receptor and the αv β3 vitronectin receptor that blocks fibrinogen binding to activated platelets (7E3) (Coller, 1985, J. Clin. Invest. 76:101-108; Coller et al., 1991, Blood 77:75-83). Blood smears were made from the samples in some experiments and stained with a standard Wright stain (Hemastain, Geometric Data, Wayne, Pa.).

Like-named read-outs stand apart in the source and are kept apart here. Where a SMILES comes first, the peptide text is derived from it.

With `N=C(N)NCCC[C@H](NC(=O)CNC(=O)CNC(=O)CNC(=O)CNC(=O)CNC(=O)CNC(=O)CNC(=O)CNC(=O)CNC(=O)CNC(=O)CNC(=O)CNC(=O)CNC(=O)CNC(=O)CN)C(=O)NCC(=O)N[C@@H](CC(=O)O)C(=O)N[C@@H](Cc1ccccc1)C(N)=O` [G15 -RGDF] (H-GGGGGGGGGGGGGGGRGDF-NH2), in series [1], the “solubility in 0.1% trifluoroacetic acid” value was “fully soluble” and the “solubility in the acetate buffer” value is on record as “only partially soluble”.
In the case of `N=C(N)NCCC[C@H](NC(=O)CNC(=O)CNC(=O)CNC(=O)CNC(=O)CNC(=O)CNC(=O)CNC(=O)CNC(=O)CNC(=O)CNC(=O)CN)C(=O)NCC(=O)N[C@@H](CC(=O)O)C(=O)N[C@@H](Cc1ccccc1)C(N)=O` [G11 -RGDF], the “solubility in the acetate buffer” value in series [2] (0.05M Na acetate buffer, pH 6.5) is “only partially soluble”. In addition, the “solubility in 0.1% trifluoroacetic acid” value in series [2] (pH 2.5, 22° C. or 37° C.) is listed as “fully soluble”.
For the compound `CC(=O)Oc1ccccc1C(=O)O` [acetylsalicylic acid], in the series on platelets [3], the “effect of preincubation of platelets on serotonin release induced by (G)n -RGDF beads” value is given as “did not change this pattern”.
As to `N=C(N)NCCC[C@H](NC(=O)CNC(=O)CNC(=O)CNC(=O)CNC(=O)CNC(=O)CNC(=O)CNC(=O)CNC(=O)CNC(=O)CNC(=O)CNC(=O)CNC(=O)CNC(=O)CNC(=O)CNC(=O)CNC(=O)CN)C(=O)NCC(=O)N[C@@H](CC(=O)O)C(=O)N[C@@H](Cc1ccccc1)C(N)=O` [G17 -RGDF] (H-GGGGGGGGGGGGGGGGGRGDF-NH2), in series [1], the “solubility in 0.1% trifluoroacetic acid” value was “fully soluble” and the “solubility in the acetate buffer” value is on record as “only partially soluble”.
On the same counts, the results for `N=C(N)NCCC[C@H](NC(=O)CNC(=O)CNC(=O)CNC(=O)CNC(=O)CNC(=O)CNC(=O)CNC(=O)CNC(=O)CNC(=O)CNC(=O)CNC(=O)CNC(=O)CN)C(=O)NCC(=O)N[C@@H](CC(=O)O)C(=O)N[C@@H](Cc1ccccc1)C(N)=O` [G13 -RGDF] are “fully soluble” and “only partially soluble”.
In the case of “Y-HHLGGAKQAGDV (N-terminal added tyrosine) [Fibrinogen Dodecapeptide (+Tyr), fibrinogen γ-chain dodecapeptide (amino acids 400-411) with an added amino-terminal tyrosine]”, the “Inhibition of G9 -RGDF Bead Agglutination (%)” value in the series with platelets [4] (peptide 1.8 × 10^-3 M) is listed as 13%; with platelets [4] (peptide 3.6 × 10^-3 M), 67%; in the series on platelets [4] (peptide ≤4.5 × 10^-4 M) it was 0%.
As to `CCCCC[C@H](O)/C=C/[C@H]1[C@H](O)CC(=O)[C@@H]1CCCCCCC(=O)O` [PGE1], the “effect of preincubation of platelets on serotonin release induced by (G)n -RGDF beads” value in the series with platelets [3] was “abolished release”.
Consider PAC-1, for which, in the series on platelets [4], the “inhibition of agglutination of G1 -RGDF and G3 -RGDF beads” value was “effectively inhibited”. In addition, the “Inhibition of G9 -RGDF Bead Agglutination (%) +ADP” value in the series on platelets [4] (antibody 60 μg/ml, 30 min) was 8%. Further, the “inhibition of the interaction of platelets in PRP with G1 -RGDF, G3 -RGDF, and G5 -RGDF beads” value in the series on platelets [4] (even with ADP activation) was over 90%.
On to `N=C(N)NCCC[C@H](NC(=O)CNC(=O)CNC(=O)CNC(=O)CNC(=O)CNC(=O)CNC(=O)CNC(=O)CNC(=O)CNC(=O)CNC(=O)CNC(=O)CNC(=O)CNC(=O)CNC(=O)CNC(=O)CNC(=O)CNC(=O)CNC(=O)CN)C(=O)NCC(=O)N[C@@H](CC(=O)O)C(=O)N[C@@H](Cc1ccccc1)C(N)=O` [G19 -RGDF] (H-GGGGGGGGGGGGGGGGGGGRGDF-NH2), for which, in series [1], the “solubility in 0.1% trifluoroacetic acid” value is on record as “fully soluble” and the “solubility in the acetate buffer” value was “only partially soluble”.
As for `O=C(O)CN(CCN(CC(=O)O)CC(=O)O)CC(=O)O` [EDTA, reference compound], the “effect on platelet-thrombo-erythrocyte co-aggregation” value with activated platelets is recorded as “inhibited”. In addition, the “bead agglutination in the presence of the agent” value in the series with platelets [4] is listed as “no agglutination at all”.
